Test results from patent publication US8119362B2, “Method of screening for compounds that can be used for the treatment of respiratory conditions” (Centre National de la Recherche Scientifique—Cnrs, priority 2007, dated 2012).

Target: T1, human TASK-2 channel (Homo sapiens, UniProt O95279)
T1 construct: expressed in transfected cells; host or cells: HEK cells (Human Embryonic Kidney cells)
T1 sequence (O95279 1-499): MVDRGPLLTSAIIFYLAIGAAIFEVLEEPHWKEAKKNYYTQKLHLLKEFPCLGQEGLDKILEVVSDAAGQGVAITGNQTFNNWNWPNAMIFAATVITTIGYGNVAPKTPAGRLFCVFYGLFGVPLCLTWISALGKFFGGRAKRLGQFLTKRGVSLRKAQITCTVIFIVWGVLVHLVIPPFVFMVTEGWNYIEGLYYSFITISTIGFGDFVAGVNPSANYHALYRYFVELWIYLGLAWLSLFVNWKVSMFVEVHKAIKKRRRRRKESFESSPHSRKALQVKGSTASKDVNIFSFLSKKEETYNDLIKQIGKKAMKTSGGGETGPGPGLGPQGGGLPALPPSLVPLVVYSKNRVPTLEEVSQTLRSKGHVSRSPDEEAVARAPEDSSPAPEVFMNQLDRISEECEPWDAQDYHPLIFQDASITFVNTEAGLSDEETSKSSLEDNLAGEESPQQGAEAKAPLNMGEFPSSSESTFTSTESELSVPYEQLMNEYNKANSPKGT
Test: Patch-clamp (whole cell) recording of TASK-2 current in transfected HEK cells
Assay type: cell-based
Settings: Doxapram at 0.9 mM in the external bath; HEK cells transfected with human TASK-2 (pIRES-CD8-hTASK2); voltage jumps; FIG. 4
Experimental: The following screening is used. HEK cells (Human Embryonic Kidney cells) are transfected with a plasmid containing complementary DNA from the gene of the human TASK-2 channel (pIRES-CD8-hTASK2) by the lipofectamine method. After 24 hours of culture, the TASK-2 currents are recorded using the voltage-clamp method (patch-clamp in whole cell configuration). The currents are activated by jumps in voltage from a rest potential at […] to variable values ranging from −80 to +45 mV.
The currents are recorded in whole cell configuration using an EPC-10 amplifier (HEKA). The <> pipette contains a solution of 95 K-gluconate, 30 mM KCl, 4.8 mM Na2HPO4, 1.2 mM NaH2PO4, 5 mM glucose, 2.38 mM MgCl2, 0.726 mM CaCl2, 1 mM EGTA, 3 mM ATP, pH 7.2. The external solution is a RINGER solution: 145 mM NaCl, 0.4 mM KH2PO4, 1.6 mM K2HPO4, 5 mM glucose, 1 mM MgCl2, 1.3 mM CaCl2, 5 mM HEPES, pH 7.4.
Different drugs may be applied at different concentrations by perfusion of the external bath and their effects are evaluated by the change in the currents compared with the control conditions.

`CCN1CC(CCN2CCOCC2)C(c2ccccc2)(c2ccccc2)C1=O` (stereo not shown) [Doxapram] was tested, and the “reduction of the TASK-2 current” value was 25%.
